From US7208154B2, “Methods and compositions for the treatment of MHC-associated conditions” (Regents of the University of Michigan, priority 2002, dated 2007) come the findings set out here.

Assay [1] relates to Human fibroblastoid M1 cells. Put plainly: NO production (fluorometric nitrate/nitrite DAN assay) in M1 cells stimulated with bead-bound peptide. It counts as cell-based. As to conditions: for Block of NO induction by shared epitope-expressing peptide 65–79*0401: then bead-bound 65–79*0401 for 1–30 min. The procedure: DKCLA [SEQ ID NO: 16] binds to calreticulin, and inhibits binding of shared epitope-expressing peptides which trigger pro-oxidative signaling (FIG. 9). In follow up experiments the functional activity of DKCLA [SEQ ID NO: 16] was determined by measuring its effect on NO production by shared epitope-expressing peptides (i.e. 65–79*0401) and a control peptide, 65–79*0402. Human fibroblastoid M1 cells were pre-incubated overnight with or without 50 µg/ml of DKCLA. Subsequently culture medium was changed to NO assay buffer (20 mM Tris, pH7.6, 100 mM NaCl, 0.1 mM EDTA), and cells were stimulated for 1–30 min with Sepharose bead-bound peptide 65–79*0401 or control peptide 65–79*0402. At different time points, cultures were collected and NO levels were measured. Briefly, supernatants were collected and spun down to remove cell debris. Nitrate in the supernatant were first transformed to nitrite by incubation with nitrate reductase for 60 min in room temperature. Then, DAN was added to yield fluorescent 2,3-naphthotriazole. Fluorescence was measured with a Perkin-Elmer Fusion™ Universal Microplate Analyzer, using a wavelength excitation of 375 nm and an emission wavelength of 415 nm.
The nitrite and nitrate assay was a modified method from fluorometric determination of nitrite [Thomas Pet al. Anal. Biochem., 214:11–16, (1993), Miles AM et al. Methods 7: 40–47, (1995)]. Cell culture medium was changed to NO assay buffer (20mM Tris, pH7.6, 100 mM NaCl, 0.1 mM EDTA) and was treated by bead bound peptides. After treatment, supernatant was spun down to remove cell debris. Nitrate in the supernatant was first transformed to nitrite by incubation with Nitrate Reductase for 60min in room temperature. Then 2,3-diaminonaphthalene (DAN) was added to yield fluorescent 2,3-naphthotriazole. Fluorescence was measured by a FUSION™ Universal Microplate Analyzer with excitation at 375 nm and emission at 415 nm.

The target of assay [2] is T1, calreticulin (Homo sapiens, UniProt P27797).
T1 sequence (P27797 18-417): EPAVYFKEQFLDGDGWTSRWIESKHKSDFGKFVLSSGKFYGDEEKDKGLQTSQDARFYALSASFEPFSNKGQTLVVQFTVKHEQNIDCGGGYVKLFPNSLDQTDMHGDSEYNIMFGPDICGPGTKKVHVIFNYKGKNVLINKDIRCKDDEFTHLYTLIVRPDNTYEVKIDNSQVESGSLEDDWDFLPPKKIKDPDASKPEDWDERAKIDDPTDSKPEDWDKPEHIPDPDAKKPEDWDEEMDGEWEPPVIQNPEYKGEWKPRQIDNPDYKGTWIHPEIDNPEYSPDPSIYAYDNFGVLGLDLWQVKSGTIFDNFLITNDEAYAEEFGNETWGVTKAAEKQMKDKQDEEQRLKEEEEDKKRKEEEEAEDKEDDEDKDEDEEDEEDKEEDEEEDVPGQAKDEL
Put plainly: Surface plasmon resonance, calreticulin immobilized on CM5 chip, pentapeptide binding. On the set-up: GST (cleaved yes); made in house; host or cells: E. coli (strain provided by Dr. Michalak). As to conditions: Biacore, 25° C., peptides 25–180 μM. The method, then: The E. coli strain expressing GST fusion Calreticulin was kindly provided by Dr. Michalak [Baksh S et al. Protein Expr Purif., 3, 322–331, (1992)]. GST-Calreticulin was purified according to the manual of GST Gene Fusion System from Pharmacia. Factor Xa was used to liberate GST from calreticulin. In an additional step the column was treated with mono-Q to achieve >90% purity of calreticulin (MW=60 kD).
Prior to use, biosensor chips CM5 were docked into a Biacore® 2000 and preconditioned in water at 100 μl/min by applying two consecutive 20-μl pulses of 50 mM NaOH, then 10 mM HCl, and finally 0.1% SDS. Calreticulin was immobilized on CM5 surface by standard primary amine coupling [Lofas S et al. Biosensors & Bioelectronics, 10: 813–822, (1995), Johnsson B et al. J Mol Recognit., 8: 125–131, (1995), Karlsson R et al. J. Immunol. Methods, 200:121–133. (1997)]. Immobilizations were conducted at 25° C. in HBS-EP (10 mM HEPES, pH7.4, 150 mM NaCl, 1 mM EDTA, 0.005% Surfactant P-20), with a flow of 10 μl/min. […]
Shared epitope-expressing peptides potently bind to, and trigger, signaling through calreticulin. […] However, when calreticulin binding activities of the panel of pentapeptides were determined, one conspicuous exception was discovered, that is DKCLA FIG. 15 peptide #7 (Q70D).
A general note: In SPR one partner is held on a chip, and binding of the other changes the refractive index at the surface.

Assay [3] addresses T1, calreticulin. In words: Competitive inhibition of shared epitope peptide binding to calreticulin (Biacore). Details: GST (cleaved yes); made in house; host or cells: E. coli (strain provided by Dr. Michalak). The procedure: Prior to use, biosensor chips CM5 were docked into a Biacore® 2000 and preconditioned in water at 100 μl/min by applying two consecutive 20-μl pulses of 50 mM NaOH, then 10 mM HCl, and finally 0.1% SDS. Calreticulin was immobilized on CM5 surface by standard primary amine coupling [Lofas S et al. Biosensors & Bioelectronics, 10: 813–822, (1995), Johnsson B et al. J Mol Recognit., 8: 125–131, (1995), Karlsson R et al. J. Immunol. Methods, 200:121–133. (1997)]. Immobilizations were conducted at 25° C. in HBS-EP (10 mM HEPES, pH7.4, 150 mM NaCl, 1 mM EDTA, 0.005% Surfactant P-20), with a flow of 10 μl/min. The CM5 surface was activated by 7 min injection of 200 mM EDC/50 mM NHS to prepare a high-capacity surface, with manual injection of 100 μg/ml calreticulin until 5500 RU level was approached. Then 100 μl of 1M ethanolamine was used to block remaining activated group.
Calreticulin and peptide binding were performed at 25° C. in binding buffer (10 mM HEPES, pH8.0, 50 mM KCl, 0.5 mM CaCl2, 1% Triton-X100), with a flow rate of 10 μl/min. Peptides in the analyte ranged in concentration from 25–180 μM. Binding assays were repeated at least 3 times. Kinetic analysis was performed using Kinetic separate ka/kd fitting in BIA evaluation 3.0 software.
In order to determine whether DKCLA [SEQ ID NO: 16] and shared epitope-expressing peptides compete for the same binding site on calreticulin, competitive binding studies were performed in which the calreticulin binding activity of 14-mer shared epitope-expressing peptides was determined in the presence or absence of different pentapeptides. […] Thus, a Q70D substitution produces a shared epitope-antagonistic effect.

Setting [4] is: M1 cells pre-incubated overnight with 50 µg/ml.

Regarding DKCLA [Asp Lys Cys Leu Ala], in assay [1] (setting [4]), the “Effect on baseline NO levels” value was “no measureable effect” and the “Block of NO induction by shared epitope-expressing peptide 65–79*0401” value is “blocked NO induction”. Also, the “Impact on NO levels with control peptide 65–79*0402” value in assay [1] (bead-bound control peptide 65–79*0402) is given as “no impact”. Further, the “Binding to immobilized calreticulin” value on calreticulin [2] is recorded as “bind very strongly to calreticulin”. In addition, the “Block of 65–78*0401 binding to calreticulin” value at calreticulin [3] (14-mer peptide 65–78*0401) was “effectively and specifically blocked binding”. For the same substance, the “Block of 65–78*0404 binding to calreticulin” value on calreticulin [3] (14-mer peptide 65–78*0404) was “effectively and specifically blocked binding”. On calreticulin [3] (dose response analysis, FIG. 16C), the “IC50, inhibition of 65–78*0401 binding to calreticulin” value was “low-υM range”. Further, the “IC50, inhibition of 65–78*0404 binding to calreticulin” value at calreticulin [3] (dose response analysis, FIG. 16D) is “low-υM range”.
As to “Gln Lys Arg Ala Glu (QKRAE) [pentapeptide with A74E substitution]”, in assay [1] (setting [4]), the “Block of NO induction by shared epitope-expressing peptide 65–79*0401” value is on record as “did not inhibit 65–79*0401-triggered NO production”. For the same substance, in the assay with calreticulin [2], the “Binding to immobilized calreticulin” value is given as “did not bind to calreticulin”. The “Inhibition of 65–79*0401 binding to calreticulin” value in the assay with calreticulin [3] (Biacore assay, control experiment under identical conditions) is on record as “did not inhibit 65–79*0401 binding to calreticulin”.
